Data reported in paper PMC9424909, “Rutin alleviated acrolein-induced cytotoxicity in Caco-2 and GES-1 cells by forming a cyclic hemiacetal product” (Frontiers in Nutrition, 2022).
pIC50: −log10 of the molar value.

Experiments:
GES-1 cells [1] = assay: cell survival, CCK-8 assay; assay type: cell-based, human; conditions: for cell viability (viable cell number): incubation 24 h
Description: (§1) The Caco-2 cell line and GES-1 cell line were obtained from iCell Bioscience (Shanghai, China). As described by Chai et al. ([40]) with a bit modification, the Caco-2 cells were cultured within a medium composed of DMEM supplemented with 1% (v/v) NEAA, 10% (v/v) FBS, and penicillin and streptomycin (100 U/mL). GES-1 cells were cultivated according to Xu et al. ([41]) with slight modifications as follows: DMEM medium including 1% (v/v) NEAA, 10% (v/v) FBS, and penicillin and streptomycin (100 U/mL). Cells were all maintained in a humidified incubator containing 5% CO2 and 95% air at 37°C.
(§2) The effects of ACR and RAC on cell survival (both Caco-2 and GES-1 cells) were measured by the CCK-8 assay ([41]). Briefly, cells (1 × 10^4 cells/well) were seeded into a 96-well plate and cultivated overnight. […] After cells were rinsed twice with PBS and resuspended in 100 μL of DMEM supplemented with 10% FBS, 10 μL of CCK-8 solution was added into each well and the plate was maintained for 1 h in the incubator. The plate was read at 450 nm on a microplate reader (BioTek, Epoch 2, USA), and all experiments were performed thrice. Cell viability was expressed as a percentage of the control group as shown below:
(§3) Cell viability (%) = A sample/A control × 100%
(§4) Where A sample was the absorbance (Abs) of the cells incubated with different concentrations of sample solutions, and A control was the Abs of the cells incubated without sample solution.

Caco-2 cells [2] = assay: cell survival, CCK-8 assay; assay type: cell-based, human; conditions: for cell viability (viable cell number): incubation 24 h
Description: as §1, §2, §3, §4

GES-1 cells [3] = assay: JC-1 staining, mitochondrial membrane potential (MMP); assay type: cell-based, human; conditions: 24 h
Description: as §1
(§5) After incubation with different concentrations of samples, the changes of MMP in Caco-2 and GES-1 cells were measured in accordance with Liu et al., with slight modifications ([43]). In brief, cells (1 × 10^4 cells/well) were exposed to different concentrations of ACR and RAC for 24 h, respectively. Then 500 μL of JC-1 staining solution was added into each well and the plate was further incubated at 37°C for 15 min. Cells were then rinsed twice with 1 mL of staining buffer and resuspended with 500 μL of staining buffer prior to MMP determination in the flow cytometry.

Caco-2 cells [4] = assay: as above; assay type: cell-based, human; conditions: 24 h
Description: as §1, §5

GES-1 cells [5] = assay: apoptosis assay, Annexin-V FITC/PI flow cytometry; assay type: cell-based, human; conditions: 24 h
Description: as §1
(§6) Cell apoptosis assay was conducted in refer to Abas et al. ([42]) with modifications. In short, cells at a density of 1 × 10^4 cells/well were seeded in 96-well plates and incubated overnight, followed by exposure to different concentrations of ACR and RAC for another 24 h. After that, cells were rinsed twice with PBS, resuspended in 200 μL of Annexin-binding buffer, and finally stained with Annexin-V FITC and PI (5 μL each) for 10 min at 37°C in darkness. After adding 400 μL of Annexin-binding buffer, the signal intensity was measured using a FACSCalibur (Becton Dickinson, CA, USA) flow cytometry within 1 h, and data was analyzed with FlowJo software (Ashland, OR, USA).

Caco-2 cells [6] = assay: apoptosis assay, Annexin-V FITC/PI flow cytometry; assay type: cell-based, human; conditions: for apoptotic cells / number of viable cells: 24 h
Description: as §1, §6

[7] = elimination of ACR by rutin in PBS (DNPH derivatization, HPLC); conditions: for amount of ACR reduced compared with the initial content / content of ACR (residual) / content of residual ACR: 2 h; for content of ACR (residual): rutin/ACR 1/1, initial content 200 μmol
Description: In the present study, three variables were taken into consideration, namely temperature (40–100°C), reaction duration (0.5–8 h), and molar ratio of rutin to ACR (from 1/2 to 4/1), and the remaining level of ACR was determined. A mixture of rutin, ACR, and 20 mL of PBS was prepared in a 50 mL three-necked flask and reacted under light-proof conditions. The different variables were studied separately while keeping other conditions constant as follows: temperature of 80°C, reaction time of 2 h, and the molar ratio of rutin/ACR of 1/1. At the end of each reaction, ACR was derivatized with DNPH, and its content was determined as below.
The stock solution equivalent to ACR concentration of […] was prepared by dissolving 10.7 mg of ACR-DNPH standard with 25 mL of acetonitrile (ACN). And the ACR-DNPH standard curve (2 to 100 μg/mL) was established by serial dilutions of the stock solution. The HPLC conditions were as below. An Agilent 1,260 Infinity II HPLC system (Agilent Technologies, Palo Alto, CA) equipped with a DAD and a Zorbax SB-C18 column (250 × 4.6 mm; 5 μm; Agilent Technologies) was utilized for the determination of ACR-DNPH. The separation was conducted under isocratic conditions by introducing 50% A (water) and 50% B (ACN) at a flow rate of 1.0 mL/min for 15 min. The temperature was 35°C, the injection volume was 20 μL, and the detection wavelength was set at 365 nm. According to the retention time as well as the peak area, the standard curve of ACR-DNPH derivates was obtained.
DNPH was recrystallized as the followings before use: excess DNPH was added into 200 mL of methanol (MeOH) heating for 1 h, and the supernatant was collected and further heated at 60°C to remove 95% of the solvent; the crystals were then washed twice with 100 mL of MeOH, transferred to another clean beaker, and co-heated with 200 mL of MeOH; and the resulting crystal was stored under seal. The 0.1 M DNPH solution was prepared by dissolving 5.0548 g of the purified DNPH in 250 mL of ACN containing 5 mL of 10% phosphoric acid solution.
Derivatization of ACR with DNPH was conducted in accordance with Reilly et al. ([36]). In short, one milliliter of each sample was incubated with 1 mL of diluted DNPH solution (0.01 M) for 40 min at 40°C, followed by extraction with 10 mL of MeOH/water (75: 25, v/v). After centrifugation (6,000 rpm, 10 min), the supernatant was collected and was further extracted with 10 mL of dichloromethane to obtain the DNPH derivatives. Prior to HPLC analysis as above, the DNPH derivatives were re-dissolved in 1 mL of HPLC grade ACN and passed through a 0.45 μm filter (Bie & Berntsen, Rødovre, Denmark).

C=CC=O [ACR, Acrolein]
cell viability (viable cell number) (GES-1 cells [1]; GES-1, 20 μM): 49.57% | cell viability (viable cell number) (GES-1 cells [1]; GES-1, 140 μM): 11.22% | pIC50 (GES-1 cells [1]; GES-1, CCK-8, read-out: IC50 (cytotoxicity)): > 4.70 | decrease of viable cell number (GES-1 cells [1]; GES-1, up to 140 μM, 24 h as printed): 88.78% | cell viability (viable cell number) (Caco-2 cells [2]; Caco-2, 20 μM): 31.83% | cell viability (viable cell number) (Caco-2 cells [2]; Caco-2, 140 μM): 6.97% | pIC50 (Caco-2 cells [2]; Caco-2, CCK-8, read-out: IC50 (cytotoxicity)): > 4.70 | ratio of red/green fluorescence intensity (GES-1 cells [3]; GES-1, 20 μM): 5.68 | ratio of red/green fluorescence intensity (GES-1 cells [3]; GES-1, 20 μM, listed as Acrolein): 5.68 ± 0.24 | ratio of red/green fluorescence intensity (GES-1 cells [3]; GES-1, 40 μM): 4.29 ± 0.17 | ratio of red/green fluorescence intensity (GES-1 cells [3]; GES-1, 60 μM): 2.13 | ratio of red/green fluorescence intensity (GES-1 cells [3]; GES-1, 60 μM, listed as Acrolein): 2.13 ± 0.10 | ratio of red/green fluorescence intensity (Caco-2 cells [4]; Caco-2, 20 μM): 5.32 | ratio of red/green fluorescence intensity (Caco-2 cells [4]; Caco-2, 20 μM, listed as Acrolein): 5.32 ± 0.17 | ratio of red/green fluorescence intensity (Caco-2 cells [4]; Caco-2, 40 μM): 2.88 ± 0.09 | ratio of red/green fluorescence intensity (Caco-2 cells [4]; Caco-2, 60 μM): 1.97 | ratio of red/green fluorescence intensity (Caco-2 cells [4]; Caco-2, 60 μM, listed as Acrolein): 1.97 ± 0.06 | apoptotic rate (GES-1 cells [5]; GES-1, 20 μM): 16.28% | apoptotic rate (GES-1 cells [5]; GES-1, 60 μM): 68.10% | apoptotic cells (Caco-2 cells [6]; Caco-2, 20 μM): 12.19% | number of viable cells (Caco-2 cells [6]; Caco-2, 20 μM): 87.5% | apoptotic cells (Caco-2 cells [6]; Caco-2, 40 μM): 28.59% | number of viable cells (Caco-2 cells [6]; Caco-2, 40 μM): 71.3% | apoptotic rate, times higher than that of the same concentration of RAC (Caco-2 cells [6]; Caco-2, 60 μM): 5.5 times | apoptotic cells (Caco-2 cells [6]; Caco-2, 60 μM): 59.50% | number of viable cells (Caco-2 cells [6]; Caco-2, 60 μM): 40.0%

C[C@@H]1O[C@@H](OC[C@H]2O[C@@H](Oc3c(-c4ccc(O)c(O)c4)oc4cc(O)cc(O)c4c3=O)[C@H](O)[C@@H](O)[C@@H]2O)[C@H](O)[C@H](O)[C@H]1O [rutin, quercetin 3-O-rhamnosylglucoside]
amount of ACR reduced compared with the initial content ([7]; 40°C, rutin/ACR 1/1): 43.36% | content of ACR (residual) ([7]; 40°C): 113.28 µmol | amount of ACR reduced compared with the initial content ([7]; 60°C, rutin/ACR 1/1): 82.05% | content of ACR (residual) ([7]; 60°C): 35.9 µmol | amount of ACR reduced compared with the initial content ([7]; 80°C, rutin/ACR 1/1): 92.56% | content of ACR (residual) ([7]; 80°C): 14.88 µmol | amount of ACR reduced compared with the initial content ([7]; 90°C, rutin/ACR 1/1): 96.09% | content of ACR (residual) ([7]; 90°C): 7.83 µmol | amount of ACR reduced compared with the initial content ([7]; 100°C, rutin/ACR 1/1): 98.20% | content of ACR (residual) ([7]; 100°C): 3.60 µmol | ACR removed ([7]; after 8 h of reaction, 80°C, rutin/ACR 1/1): more than 94% | content of residual ACR ([7]; molar ratio rutin/ACR 1/2, 80°C): 18.54 µmol | content of residual ACR ([7]; molar ratio rutin/ACR 4/1, 80°C): 6.69 µmol
